The values that follow come from US9346815B2, “5-chloro-2-difluoromethoxyphenyl pyrazolopyrimidine compounds, compositions and methods of use thereof” (Genentech, Inc., priority 2014, dated 2016).

In assay [1] the test system is JAK1-dependent STAT6 phosphorylation downstream of IL-13 stimulation in BEAS-2B human bronchial epithelial cells. The experiment in a line: JAK1 pathway assay in BEAS-2B cells (IL-13-pSTAT6, MSD). It counts as cell-based. The note with it: read-out: IL13-pSTAT6 EC50 (uM)_BEAS-2B. The gist of the method: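 Cells were preincubated with compounds (0.2% DMSO) for 30 min (TF-1, GM-CSF-starved overnight, serum-free OptiMEM, 300,000 cells/well) or 1 h (BEAS-2B, complete medium, 100,000 cells/well) at 37 °C.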

Assay [2] deals with isolated recombinant JAK1 kinase domain (Homo sapiens (Human), UniProt P23458). The experiment in a line: JAK1 enzyme assay (Caliper LabChip, peptide phosphorylation). It counts as biochemical. The note with it: isolated recombinant JAK1 kinase domain, 25 μM ATP.
Assay [3] concerns the target isolated recombinant JAK2 kinase domain (Homo sapiens (Human), UniProt O60674). Kind of assay: JAK2 enzyme assay (Caliper LabChip, peptide phosphorylation). The note with it: 25 μM ATP. It is filed as biochemical.

Molecules are shown by their SMILES.

isolated recombinant JAK1 kinase domain, sequence (P23458 875-1153): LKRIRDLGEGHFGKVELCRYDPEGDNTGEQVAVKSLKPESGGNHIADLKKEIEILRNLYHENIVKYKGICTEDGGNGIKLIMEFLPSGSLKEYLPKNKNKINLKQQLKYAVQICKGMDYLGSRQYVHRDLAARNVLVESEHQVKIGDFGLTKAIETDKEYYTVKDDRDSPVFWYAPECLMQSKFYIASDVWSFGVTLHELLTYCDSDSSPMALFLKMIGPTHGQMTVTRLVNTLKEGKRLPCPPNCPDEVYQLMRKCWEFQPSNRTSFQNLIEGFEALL
isolated recombinant JAK2 kinase domain, sequence (O60674 849-1124): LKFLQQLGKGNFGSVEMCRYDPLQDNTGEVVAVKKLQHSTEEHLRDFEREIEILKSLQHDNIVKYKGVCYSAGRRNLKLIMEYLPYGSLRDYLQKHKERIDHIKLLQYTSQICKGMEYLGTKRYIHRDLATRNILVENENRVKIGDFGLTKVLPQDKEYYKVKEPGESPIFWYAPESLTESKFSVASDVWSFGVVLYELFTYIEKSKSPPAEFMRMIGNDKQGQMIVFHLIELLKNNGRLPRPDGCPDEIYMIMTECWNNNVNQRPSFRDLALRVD

What is called EC50 is the concentration that produces a half-maximal response. What is called Ki is a measure of affinity in units of concentration, obtained from inhibition or displacement. In the case of `O=C1CC(N2CCN(C(=O)Cn3cc(NC(=O)c4cnn5cccnc45)c(-c4cc(Cl)ccc4OC(F)F)n3)CC2)CO1` (stereo not drawn) [Example 392, N-[3-[5-chloro-2-(difluoromethoxy)phenyl]-1-[2-oxo-2-[4-(5-oxooxolan-3-yl)piperazin-1-yl]ethyl]-1H-pyrazol-4-yl]pyrazolo[1,5-a]pyrimidine-3-carboxamide], the EC50 in assay [1] amounted to 0.0261 µM. Also, the inhibition constant (Ki) in assay [2] is 0.4 nM; in assay [3], 0.77 nM.
For `O=C(Nc1cn(CC(=O)N2CCC(N3CCOCC3)CC2)nc1-c1cc(Cl)ccc1OC(F)F)c1cnn2cccnc12` [Example 393, N-[3-[5-chloro-2-(difluoromethoxy)phenyl]-1-[2-[4-(morpholin-4-yl)piperidin-1-yl]-2-oxoethyl]-1H-pyrazol-4-yl]pyrazolo[1,5-a]pyrimidine-3-carboxamide], the half-maximal effective concentration (EC50) in assay [1] was 0.0115 µM. For the same molecule, the inhibition constant Ki in assay [2] is 0.38 nM; in assay [3] it was 0.89 nM.
`O=C(Nc1cn(C/C=C/CN2CCOCC2)nc1-c1cc(Cl)ccc1OC(F)F)c1cnn2cccnc12` [Example 394, N-[3-[5-chloro-2-(difluoromethoxy)phenyl]-1-[(2E)-4-(morpholin-4-yl)but-2-en-1-yl]-1H-pyrazol-4-yl]pyrazolo[1,5-a]pyrimidine-3-carboxamide]: the EC50 in assay [1] is 0.0311 µM. The inhibitory constant (Ki) in assay [2] was found to be 0.87 nM; in assay [3], 0.61 nM.
Take `CN1CCN(C(=O)C2CCN(C(=O)Cn3cc(NC(=O)c4cnn5cccnc45)c(-c4cc(Cl)ccc4OC(F)F)n3)CC2)CC1` [Example 398, N-(3-(5-chloro-2-(difluoromethoxy)phenyl)-1-(2-(4-(4-methylpiperazine-1-carbonyl)piperidin-1-yl)-2-oxoethyl)-1H-pyrazol-4-yl)pyrazolo[1,5-a]pyrimidine-3-carboxamide]: the EC50 in assay [1] was found to be 0.0183 µM. For the same molecule, the inhibition constant Ki in assay [2] worked out at 0.5 nM; in assay [3], 1.45 nM.
For `O=C(Nc1cn(CCN[C@H]2CCOC2)nc1-c1cc(Cl)ccc1OC(F)F)c1cnn2cccnc12` [Example 399, N-(3-(5-chloro-2-(difluoromethoxy)phenyl)-1-(2-((S)-tetrahydrofuran-3-ylamino)ethyl)-1H-pyrazol-4-yl)pyrazolo[1,5-a]pyrimidine-3-carboxamide] the same measures were 0.0232 µM, 0.9 nM and 0.39 nM.
For `CN(C)C(=O)CN(C)C1CCN(C(=O)Cn2cc(NC(=O)c3cnn4cccnc34)c(-c3cc(Cl)ccc3OC(F)F)n2)CC1` [Example 400, N-(3-(5-chloro-2-(difluoromethoxy)phenyl)-1-(2-(4-((2-(dimethylamino)-2-oxoethyl)(methyl)amino)piperidin-1-yl)-2-oxoethyl)-1H-pyrazol-4-yl)pyrazolo[1,5-a]pyrimidine-3-carboxamide] the same measures were 0.0309 µM, 0.58 nM and 1.73 nM.
For `O=C(Nc1cn(CCN[C@@H]2CCOC2)nc1-c1cc(Cl)ccc1OC(F)F)c1cnn2cccnc12` [Example 402, N-(3-(5-chloro-2-(difluoromethoxy)phenyl)-1-(2-((R)-tetrahydrofuran-3-ylamino)ethyl)-1H-pyrazol-4-yl)pyrazolo[1,5-a]pyrimidine-3-carboxamide] the same measures were 0.0187 µM, 0.83 nM and 0.4 nM.
`CN(C)CC(O)Cn1cc(NC(=O)c2cnn3cccnc23)c(-c2cc(Cl)ccc2OC(F)F)n1` (stereo not drawn) [Example 404, N-(3-(5-chloro-2-(difluoromethoxy)phenyl)-1-(3-(dimethylamino)-2-hydroxypropyl)-1H-pyrazol-4-yl)pyrazolo[1,5-a]pyrimidine-3-carboxamide]: the concentration giving a half-maximal response (EC50) in assay [1] came to 0.0078 µM. In addition, the Ki in assay [2] worked out at 1.68 nM; in assay [3] it was 0.61 nM.
